According to article PMC8865862 (Journal of Inflammation Research, 2022):

Molecular target: Caspase 1 (CASP1) (Homo sapiens, UniProt P29466)
Assay: live-cell GFP caspase-1
Format: cell-based

Sequence of Caspase 1 (CASP1) (P29466 whole entry): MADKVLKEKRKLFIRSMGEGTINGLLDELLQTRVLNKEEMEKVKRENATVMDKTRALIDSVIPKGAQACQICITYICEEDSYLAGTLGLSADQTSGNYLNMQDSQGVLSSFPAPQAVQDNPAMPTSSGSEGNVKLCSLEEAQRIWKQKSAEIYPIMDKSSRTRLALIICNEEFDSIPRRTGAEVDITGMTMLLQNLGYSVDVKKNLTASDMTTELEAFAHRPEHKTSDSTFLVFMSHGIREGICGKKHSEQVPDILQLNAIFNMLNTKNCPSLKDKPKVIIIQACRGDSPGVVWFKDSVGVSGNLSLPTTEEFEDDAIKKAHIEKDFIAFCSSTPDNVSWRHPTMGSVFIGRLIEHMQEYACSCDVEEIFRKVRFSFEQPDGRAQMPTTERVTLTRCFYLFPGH
Sequence of Caspase 1 (CASP1) (Q96P20 whole entry R262W partner): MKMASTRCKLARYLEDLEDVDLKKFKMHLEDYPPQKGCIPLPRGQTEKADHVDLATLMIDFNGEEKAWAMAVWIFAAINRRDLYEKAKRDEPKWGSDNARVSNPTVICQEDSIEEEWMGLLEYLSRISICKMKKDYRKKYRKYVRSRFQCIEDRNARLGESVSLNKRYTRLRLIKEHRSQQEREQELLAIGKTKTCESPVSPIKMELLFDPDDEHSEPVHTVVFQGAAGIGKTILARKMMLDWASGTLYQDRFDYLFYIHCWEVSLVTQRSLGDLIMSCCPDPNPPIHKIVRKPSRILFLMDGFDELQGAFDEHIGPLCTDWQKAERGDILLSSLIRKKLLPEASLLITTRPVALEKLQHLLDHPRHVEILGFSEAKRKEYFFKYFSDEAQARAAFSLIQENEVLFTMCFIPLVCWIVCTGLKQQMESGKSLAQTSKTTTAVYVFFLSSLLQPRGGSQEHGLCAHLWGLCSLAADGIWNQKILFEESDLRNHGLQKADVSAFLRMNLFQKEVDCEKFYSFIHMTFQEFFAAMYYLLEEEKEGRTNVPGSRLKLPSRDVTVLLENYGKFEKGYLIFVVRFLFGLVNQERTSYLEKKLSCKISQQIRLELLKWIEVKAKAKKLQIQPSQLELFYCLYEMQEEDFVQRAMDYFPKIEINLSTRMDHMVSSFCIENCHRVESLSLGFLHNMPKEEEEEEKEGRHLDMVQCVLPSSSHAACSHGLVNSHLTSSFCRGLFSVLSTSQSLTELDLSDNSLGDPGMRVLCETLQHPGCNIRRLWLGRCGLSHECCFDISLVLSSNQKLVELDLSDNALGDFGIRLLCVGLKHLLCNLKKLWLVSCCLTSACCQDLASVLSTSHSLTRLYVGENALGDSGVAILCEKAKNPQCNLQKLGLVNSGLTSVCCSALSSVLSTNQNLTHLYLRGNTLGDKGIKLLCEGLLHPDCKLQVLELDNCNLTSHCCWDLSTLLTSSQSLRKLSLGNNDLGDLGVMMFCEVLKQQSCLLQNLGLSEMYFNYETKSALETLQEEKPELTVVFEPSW
Sequence of Caspase 1 (CASP1) (Q9ULZ3 whole entry partner): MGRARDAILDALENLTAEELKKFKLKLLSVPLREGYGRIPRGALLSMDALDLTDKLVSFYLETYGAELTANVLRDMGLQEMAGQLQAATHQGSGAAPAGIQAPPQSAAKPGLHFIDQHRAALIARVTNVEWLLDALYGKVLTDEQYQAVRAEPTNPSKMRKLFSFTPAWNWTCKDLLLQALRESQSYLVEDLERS

CC(C)(C)[C@H](NC(=O)c1ccc(N)c(Cl)c1)C(=O)N1CCC[C@H]1C(=O)N[C@H](C=O)CC(=O)O [VRT-043198]
IC50: 4.66 µM
